The target in one data set is Focal adhesion kinase 1 (Homo sapiens, UniProt Q05397). Nature of the data set: Inhibition of recombinant FAK (unknown origin) by radiometric kinase assay.
A further data set relates to HCT-116. Briefly: Antiproliferative activity against human HCT-116 cells assessed as growth inhibition measured after 72 hrs by CellTiter-Glo assay. It counts as functional. In general terms: Cellular ATP, detected with luciferase, serves as a proxy for viable cell number.
Data set [1] is described as follows: Metabolic stability in human liver microsomes assessed as compound remaining at 1 uM measured after 1 hr. Conditions: read-out: Stabilty. It counts as ADME, Microsome. Background: Microsomes from liver hold many membrane-bound enzymes, among them those of drug oxidation.
Data set [2] in a line: Antiproliferative activity against human A375P cells assessed as growth inhibition measured after 72 hrs by CellTiter-Glo assay. It counts as functional.
Another data set relates to MDA-MB-231. Nature of the data set: Antiproliferative activity against human MDA-MB-231 cells assessed as growth inhibition measured after 72 hrs by CellTiter-Glo assay. It counts as functional.

Chain of Focal adhesion kinase 1 (Q05397 whole entry): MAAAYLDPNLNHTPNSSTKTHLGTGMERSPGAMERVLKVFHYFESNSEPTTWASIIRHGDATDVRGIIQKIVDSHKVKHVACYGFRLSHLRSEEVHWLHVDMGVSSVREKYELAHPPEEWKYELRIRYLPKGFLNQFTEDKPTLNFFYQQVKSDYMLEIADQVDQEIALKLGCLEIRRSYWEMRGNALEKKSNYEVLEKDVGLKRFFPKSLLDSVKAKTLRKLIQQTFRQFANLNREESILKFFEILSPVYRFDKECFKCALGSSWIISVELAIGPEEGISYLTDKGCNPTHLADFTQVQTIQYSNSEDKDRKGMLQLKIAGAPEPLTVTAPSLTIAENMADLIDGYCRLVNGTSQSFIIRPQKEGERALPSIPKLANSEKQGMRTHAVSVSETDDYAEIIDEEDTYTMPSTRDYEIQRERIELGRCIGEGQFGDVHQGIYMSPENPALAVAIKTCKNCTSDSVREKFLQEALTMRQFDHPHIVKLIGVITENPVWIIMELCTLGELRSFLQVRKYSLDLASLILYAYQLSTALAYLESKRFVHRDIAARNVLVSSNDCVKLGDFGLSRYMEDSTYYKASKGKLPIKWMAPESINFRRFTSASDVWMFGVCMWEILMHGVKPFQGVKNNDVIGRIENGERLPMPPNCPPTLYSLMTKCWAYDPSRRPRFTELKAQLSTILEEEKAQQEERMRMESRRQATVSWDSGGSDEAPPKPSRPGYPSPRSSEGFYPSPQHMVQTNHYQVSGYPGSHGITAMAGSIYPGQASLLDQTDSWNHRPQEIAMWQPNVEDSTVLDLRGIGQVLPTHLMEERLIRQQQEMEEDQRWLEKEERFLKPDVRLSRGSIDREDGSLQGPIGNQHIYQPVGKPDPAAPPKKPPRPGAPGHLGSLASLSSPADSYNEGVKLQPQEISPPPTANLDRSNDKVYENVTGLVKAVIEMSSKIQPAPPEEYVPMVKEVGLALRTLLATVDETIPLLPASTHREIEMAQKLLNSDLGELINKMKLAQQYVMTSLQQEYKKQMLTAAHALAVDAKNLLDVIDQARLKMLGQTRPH

The term IC50 denotes the concentration at which inhibition is half-maximal. As usually defined, the GI50 is the concentration giving 50% growth inhibition. `CS(=O)(=O)Nc1cccc(-c2csc3cnc(Nc4ccc(N5CCCCC5)cc4)nc23)c1`: the IC50 on Focal adhesion kinase 1 turned out to be 0.068 µM. The results for the GI50 (with HCT-116; in data set [2]; in the data set with MDA-MB-231) were 1.49 µM, 2.78 µM and 3.38 µM, respectively. In addition, the remaining at 1 h, 1 µM in data set [1] was found to be 58%.
Consider `COc1cc(Nc2ncc3scc(-c4ccccc4N(C)S(C)(=O)=O)c3n2)cc(OC)c1OC`, for which the IC50 on Focal adhesion kinase 1 is 0.015 µM.
Take `CCOC(=O)c1cccc(-c2csc3cnc(Nc4ccc(N5CCN(CC)CC5)cc4)nc23)c1`: the IC50 at Focal adhesion kinase 1 was 0.321 µM. The GI50 is 1.1 µM in the data set with HCT-116 (Homo sapiens, HCT-116); 1.65 µM in data set [2] (Homo sapiens, A375P); 0.95 µM in the data set with MDA-MB-231 (Homo sapiens, MDA-MB-231).
`CCN1CCN(c2ccc(Nc3ncc4scc(-c5cccc(C(=O)NC)c5)c4n3)cc2)CC1`: the IC50 at Focal adhesion kinase 1 came to 0.036 µM. Moreover, the GI50 amounted to 0.3 µM with HCT-116 (Homo sapiens, HCT-116); 1.36 µM in data set [2] (Homo sapiens, A375P); 1.26 µM in the data set on MDA-MB-231 (Homo sapiens, MDA-MB-231). Further, the remaining at 1 h, 1 µM in data set [1] worked out at 71.1%.
As to `CS(=O)(=O)Nc1cccc(-c2csc3cnc(N)nc23)c1`, the IC50 on Focal adhesion kinase 1 came out at 4.03 µM. Further, the values for the GI50 (in the data set with HCT-116; in data set [2]; in the data set on MDA-MB-231) were 33.2 µM, 43.3 µM and 27.8 µM, respectively.
With `CS(=O)(=O)Nc1cccc(-c2csc3cnc(Nc4ccccc4)nc23)c1`, the IC50 at Focal adhesion kinase 1 amounted to 0.03 µM. Moreover, the GI50 in the data set on HCT-116 is 2.57 µM; in data set [2] it was 7.52 µM; with MDA-MB-231, 26.9 µM. For the same compound, in data set [1], the remaining at 1 h, 1 µM was found to be 49.6%.
Regarding `COc1cc(Nc2ncc3scc(-c4cccc(N(C)S(C)(=O)=O)c4)c3n2)cc(OC)c1OC`, the concentration for half-maximal inhibition (IC50) on Focal adhesion kinase 1 is 0.035 µM.
Consider `COc1cc(Nc2ncc3scc(-c4cccnc4)c3n2)cc(OC)c1OC`, for which the IC50 on Focal adhesion kinase 1 is 0.026 µM.
In the case of `CCN1CCN(c2ccc(Nc3ncc4scc(-c5cccc(C(=O)O)c5)c4n3)cc2)CC1`, the IC50 at Focal adhesion kinase 1 turned out to be 0.059 µM. The GI50 came out at 4.35 µM with HCT-116 (Homo sapiens, HCT-116); 12.3 µM in data set [2] (Homo sapiens, A375P); 4.64 µM in the data set on MDA-MB-231 (Homo sapiens, MDA-MB-231).
Regarding `COc1cc(Nc2ncc3scc(-c4cccc(C(=O)O)c4)c3n2)cc(OC)c1OC`, the IC50 at Focal adhesion kinase 1 was determined as 0.049 µM.
Take `CCN1CCN(c2ccc(Nc3ncc4scc(-c5ccccc5[N+](=O)[O-])c4n3)cc2)CC1`: on Focal adhesion kinase 1, the IC50 stood at 0.361 µM. Besides, the GI50 in the data set with HCT-116 (Homo sapiens, HCT-116) came to 0.99 µM; in data set [2] (Homo sapiens, A375P) it was 1.5 µM; in the data set with MDA-MB-231 (Homo sapiens, MDA-MB-231) it was 1.01 µM.
Turning to `CNC(=O)c1ccccc1-c1csc2cnc(Nc3cc(OC)c(OC)c(OC)c3)nc12`, the IC50 at Focal adhesion kinase 1 is 0.055 µM.
Take `CCN1CCN(c2ccc(Nc3ncc4scc(-c5ccccc5S(C)(=O)=O)c4n3)cc2)CC1`: the IC50 on Focal adhesion kinase 1 came to 0.194 µM. In addition, the 50% growth inhibitory concentration (GI50) in the data set on HCT-116 (Homo sapiens, HCT-116) was determined as 1.88 µM; in data set [2] (Homo sapiens, A375P), 4.27 µM; in the data set on MDA-MB-231 (Homo sapiens, MDA-MB-231), 8.82 µM.
Turning to `CCN1CCN(c2ccc(Nc3ncc4scc(-c5cnc6ccccc6c5)c4n3)cc2)CC1`, the IC50 on Focal adhesion kinase 1 stood at 0.029 µM. Moreover, the GI50 was determined as 0.37 µM in the data set on HCT-116 (Homo sapiens, HCT-116); 8.05 µM in data set [2] (Homo sapiens, A375P); 0.88 µM in the data set on MDA-MB-231 (Homo sapiens, MDA-MB-231). In data set [1], the remaining at 1 h, 1 µM is 44.1%.
Turning to `CNC(=O)c1ccc(Nc2ncc(C(F)(F)F)c(NCc3nccnc3N(C)S(C)(=O)=O)n2)cc1` [DEFACTINIB], the GI50 in the data set with HCT-116 (Homo sapiens, HCT-116) came to 9.13 µM; in data set [2] (Homo sapiens, A375P) it was 5.94 µM; in the data set with MDA-MB-231 (Homo sapiens, MDA-MB-231), 11.5 µM.
With `COc1cc(Nc2ncc3scc(-c4cccc(S(C)(=O)=O)c4)c3n2)cc(OC)c1OC`, the IC50 on Focal adhesion kinase 1 amounted to 0.091 µM.
As to `COc1cc(Nc2ncc3scc(-c4ccccc4NS(C)(=O)=O)c3n2)cc(OC)c1OC`, the IC50 at Focal adhesion kinase 1 is 0.078 µM.
Turning to `COc1cc(Nc2ncc3scc(-c4ccccc4S(C)(=O)=O)c3n2)cc(OC)c1OC`, the IC50 at Focal adhesion kinase 1 was 0.668 µM.
With `CS(=O)(=O)Nc1cccc(-c2csc3cnc(NC4CC4)nc23)c1`, the IC50 at Focal adhesion kinase 1 was 2.35 µM. The GI50 was found to be 43.2 µM in the data set with HCT-116, 36.6 µM in data set [2] and 43.5 µM in the data set with MDA-MB-231.
On to `COc1cc(Nc2ncc3scc(-c4ccccn4)c3n2)cc(OC)c1OC`, for which the IC50 on Focal adhesion kinase 1 is 0.018 µM.
As to `CS(=O)(=O)Nc1cccc(-c2csc3cnc(NC4CCCCC4)nc23)c1`, the IC50 at Focal adhesion kinase 1 came to 0.717 µM. Moreover, the GI50 was determined as 11.3 µM with HCT-116, 17.8 µM in data set [2] and 7.73 µM in the data set on MDA-MB-231.

The values above are taken from ChEMBL document CHEMBL4837239, “Identification of Thieno[3,2-d]pyrimidine Derivatives as Dual Inhibitors of Focal Adhesion Kinase and FMS-like Tyrosine Kinase 3” (J Med Chem, 2021).
